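Assay format: 96-well plates, 48-hour exposure. GI50: concentration for 50% inhibition of growth.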 Active and inactive are the calls of the source. Cut-off read from the data, not from the text of the source: active = GI50 up to about 1.1 µM and inactive = higher.
Experiments:
Test in all cases: inhibition of tumour cell growth, NCI panel, 48 h
[1] = test system: SK-MEL-28
[2] = test system: M14
[3] = test system: LXFL 529
[4] = test system: XF498
[5] = test system: Malme-3M
[6] = test system: U-251
[7] = test system: SW-620
[8] = test system: SF-539
[9] = test system: RXF 631
[10] = test system: OVCAR-5
[11] = test system: SK-OV-3
[12] = test system: DMS-114
[13] = test system: SF-295
[14] = test system: A498
[15] = test system: HT-29
[16] = test system: HCT-15
[17] = test system: IGROV-1
[18] = test system: CAKI-1
[19] = test system: SN12C
[20] = test system: 786-0
[21] = test system: OVCAR-8
[22] = test system: A549
[23] = test system: SNB-78
[24] = test system: ACHN
[25] = test system: RXF 393
[26] = test system: EKVX
[27] = test system: DMS-273
[28] = test system: HOP-62
[29] = test system: LOX IMVI
[30] = test system: UACC-62
[31] = test system: KM-20L2
[32] = test system: TK-10
[33] = test system: NCI-H460
[34] = test system: COLO 205
[35] = test system: DLD-1
[36] = test system: HL-60
[37] = test system: SK-MEL-2
[38] = test system: BT-549
[39] = test system: SNB-75
[40] = test system: KM12
[41] = test system: Hs-578T
[42] = test system: MDA-N
[43] = test system: SF-268
[44] = test system: MDA-MB-231
[45] = test system: NCI/ADR-RES
[46] = test system: HCT-116
[47] = test system: MCF7
[48] = test system: CCRF-CEM
[49] = test system: NCI-H226
[50] = test system: OVCAR-4
[51] = test system: M19-MEL
[52] = test system: UACC-257
[53] = test system: MOLT-4
[54] = test system: HOP-18
[55] = test system: HOP-92
[56] = test system: NCI-H522
[57] = test system: K562
[58] = test system: DU-145
[59] = test system: SK-MEL-5
[60] = test system: SNB-19
[61] = test system: HCC 2998
[62] = test system: NCI-H23
[63] = test system: RPMI-8226
[64] = test system: OVCAR-3
[65] = test system: T47D
[66] = test system: MDA-MB-435
[67] = test system: UO-31
[68] = test system: PC-3
[69] = test system: SR

Measured: GI50

O=C1OCc2c1cc1ccc(O)c(OC3OC(CO)C(O)C(O)C3O)c1c2-c1ccc2c(c1)OCO2 (stereo unspecified)
inactive: [1] 67.8 µM | [2] 87.3 µM | [3] 68.1 µM | [4] 62.7 µM | [5] > 100 µM | [6] > 100 µM | [7] > 100 µM | [8] > 100 µM | [9] > 100 µM | [10] > 100 µM | [11] > 100 µM | [12] 47.5 µM | [13] > 100 µM | [14] > 100 µM | [15] 47.2 µM | [17] > 100 µM | [18] 87.3 µM | [19] 89.3 µM | [20] > 100 µM | [21] 94 µM | [22] > 100 µM | [23] 89.3 µM | [24] 72.1 µM | [25] 59.4 µM | [26] > 100 µM | [27] 94.6 µM | [28] > 100 µM | [29] 86.7 µM | [30] 76.9 µM | [31] > 100 µM | [32] > 100 µM | [33] > 100 µM | [34] > 100 µM
46.2 µM: [16]

O=C1C=C(Br)c2c(-c3ccccc3)oc3cccc1c23
inactive: [35] > 100 µM | [1] > 93.5 µM | [2] 54.5 µM | [3] > 65.2 µM | [36] 19.1 µM | [5] 72.3 µM | [6] 18.4 µM | [7] > 100 µM | [37] 71.8 µM | [8] 23.2 µM | [38] > 100 µM | [39] 5.45 µM | [9] 46.8 µM | [10] > 100 µM | [11] 54.1 µM | [40] > 53 µM | [41] 29.3 µM | [12] 24.8 µM | [13] 22.9 µM | [14] > 75.7 µM | [42] 18.4 µM | [43] 20.2 µM | [44] 26.4 µM | [45] 48 µM | [46] 25.2 µM | [15] > 63.4 µM | [47] 2.62 µM | [17] 32.3 µM | [48] 7.48 µM | [49] > 80.9 µM | [18] > 76.9 µM | [50] 7.5 µM | [51] > 60.1 µM | [52] > 100 µM | [19] > 88.1 µM | [53] > 41.5 µM | [20] 51.8 µM | [21] 58.2 µM | [22] > 81.5 µM | [23] 35.6 µM | [54] > 100 µM | [24] 49 µM | [25] 23.6 µM | [55] 25.4 µM | [56] 31.6 µM | [26] 25.4 µM | [27] > 42.9 µM | [57] > 50.9 µM | [28] 34.4 µM | [58] 31.6 µM | [29] > 49 µM | [30] 38.1 µM | [59] 54.3 µM | [60] 42.1 µM | [31] > 100 µM | [61] 99.8 µM | [62] > 52.6 µM | [63] > 39.3 µM | [32] 38.1 µM | [64] > 57.1 µM | [33] 37.8 µM | [65] 6.21 µM | [66] 17.1 µM | [67] > 61.2 µM | [68] > 100 µM | [34] > 63.1 µM
> 45.7 µM: [16]

CC1=C2C3OC(=O)C(C)C3C(O)C[C@@]2(C)C(=O)CC1 (stereo partly specified)
inactive: [35] > 100 µM | [1] > 100 µM | [2] > 100 µM | [3] > 100 µM | [36] > 100 µM | [5] > 100 µM | [6] > 100 µM | [7] > 100 µM | [8] > 100 µM | [39] > 100 µM | [9] > 100 µM | [10] > 100 µM | [11] > 100 µM | [40] > 100 µM | [12] > 100 µM | [13] > 100 µM | [14] > 100 µM | [43] > 100 µM | [46] > 100 µM | [15] > 100 µM | [17] > 100 µM | [48] > 100 µM | [49] > 100 µM | [18] > 100 µM | [50] > 100 µM | [51] > 100 µM | [52] > 100 µM | [19] > 100 µM | [53] > 100 µM | [69] > 100 µM | [20] > 100 µM | [21] > 100 µM | [22] > 100 µM | [23] > 100 µM | [54] > 100 µM | [24] > 100 µM | [25] > 100 µM | [55] > 100 µM | [56] > 100 µM | [26] > 100 µM | [27] > 100 µM | [28] > 100 µM | [29] > 100 µM | [30] > 100 µM | [59] > 100 µM | [60] > 100 µM | [31] > 100 µM | [61] > 100 µM | [63] > 100 µM | [32] > 100 µM | [64] > 100 µM | [33] > 100 µM | [67] > 100 µM | [34] > 100 µM
> 100 µM: [16]

Source: ChEMBL document CHEMBL1201862, “PubChem BioAssay data set” (2004)
